# Experiments:
# Bacillus megaterium = test: induction of omega-amino acid transaminase production by addition of an amine to cultures; type: cell-based; conditions: 2 mM amine inducer, 30 to 40 hours; for Specific Activity (units/mg) Acetate: 40 mM acetate as carbon source; for Specific Activity (units/mg) Succinate: 40 mM succinate as carbon source
# Method: (§1) Enzyme Activity: Enzyme activity is expressed herein as units/mg. A unit of enzyme activity is defined as that which produces 1 micromole of ketone per minute. For uniformity, this is measured as micromoles of 1-phenylbutan-3-one formed from R,S-1-phenyl-3-aminobutane. The following standardized assay was utilized to measure the activity of the omega-amino acid transaminases set forth in the examples which follow.
# (§2) A known volume of the enzyme preparation to be tested is incubated at 37° C. and pH 7 in a solution having the following composition:
# (§3) A sample is removed and 20% by volume of 12% aqueous trichloroacetic acid are added. Precipitated protein is removed by centrifugation and the concentration of 1-phenylbutan-3-one in the supernatant is determined by liquid chromatography on a 100×8 mm 4 micron Novopak phenyl column eluting with 40% isopropanol and 0.09% phosphoric acid in water. Under these conditions, 1-phenylbutan-3-one elutes at 5.3 minutes.
# Enzyme Recovery: Unless otherwise indicated, cells from culture are centrifuged for 10 minutes at 10,000 G, resuspended in 10 mM of phosphate buffer at pH 7 and 0.5 mM of pyridoxal phosphate, and ruptured by two passes through a chilled French press operating at 15,000 psi. Cell debris is removed by centrifugation for one hour at 10,000 G and the enzyme-containing supernatant collected.
# The following procedure exemplifies the growth of microorganisms using ammonium as the sole nitrogen source and then inducing omega-amino acid transaminase production by the addition of an amine.
# Bacillus megaterium was grown in 1 L cultures in the standard salt medium supplemented with 40 mM of the indicated carbon source, 5 mM of ammonium chloride, 80 mM of phosphate buffer, and 2 mM of the amine inducer indicated below. After 30 to 40 hours, the enzyme was collected and assayed as described above.
# [1] = tested on: omega-amino acid transaminase; test: relative rates of conversion of 1-phenyl-3-aminobutane with different amino acceptors in place of pyruvate; type: biochemical; conditions: for Relative Rate of Conversion: substrate 1-phenyl-3-aminobutane
# Method: as §1, §2, §3
# The following procedure exemplifies the relative rates of conversion with 1-phenyl-3-aminobutane employing different amino acceptors in place of pyruvate in the assay described above.
# [2] = tested on: omega-amino acid transaminase; test: standardized omega-amino acid transaminase activity assay (1-phenylbutan-3-one formed from R,S-1-phenyl-3-aminobutane), B. megaterium enzyme; type: biochemical, Bacillus megaterium
# Method: as §1, §2, §3
# (§4) Enzyme extracts from P. putida, B. megaterium, and P. aeruginosa obtained as above were assayed as above at pH 9 in 50 mM of Tris/HCl using 30 mM of R,S-1-phenyl-3-aminobutane, with and without 100 mM of sodium pyruvate. The following relative rates of conversion were observed.
# (§5) The transaminase nature of the enzymatic action is apparent from the effect of "suicide inactivators" known to be specific for transaminases {see, for example, Burnett et al., J. Bio. Chem., 225, 428-432 (1980)}, the inactivator (0.5 mM) being preincubated with the assay medium before addition of R,S-1-phenyl-3-aminobutane.
# (§6) The stereoselectivity of the omega-amino acid transaminase can be seen from the corresponding assay utilizing 15 mM of R-1-phenyl-3-aminobutane (with pyruvate).
# [3] = molecular target: T1, omega-amino acid transaminase (Pseudomonas aeruginosa, UniProt Q9I700); test: standardized omega-amino acid transaminase activity assay, P. aeruginosa enzyme; type: biochemical
# T1 construct: cell extracts containing the omega-amino acid transaminase then are obtained as therein described; host or cells: Pseudomonas aeruginosa ATCC 15692, cell extract
# T1 sequence (Q9I700 1-448): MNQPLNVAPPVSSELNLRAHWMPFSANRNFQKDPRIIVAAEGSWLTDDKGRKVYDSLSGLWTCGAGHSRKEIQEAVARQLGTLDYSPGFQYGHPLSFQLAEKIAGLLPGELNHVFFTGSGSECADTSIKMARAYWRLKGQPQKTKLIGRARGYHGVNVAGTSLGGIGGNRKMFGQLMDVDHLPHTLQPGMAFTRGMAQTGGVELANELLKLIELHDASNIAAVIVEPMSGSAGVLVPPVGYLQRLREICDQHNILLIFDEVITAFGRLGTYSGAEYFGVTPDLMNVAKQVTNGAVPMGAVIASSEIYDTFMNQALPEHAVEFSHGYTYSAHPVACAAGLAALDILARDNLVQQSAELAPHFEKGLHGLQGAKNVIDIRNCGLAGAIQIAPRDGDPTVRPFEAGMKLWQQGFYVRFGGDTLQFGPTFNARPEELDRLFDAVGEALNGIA
# [4] = tested on: omega-amino acid transaminase; test: standardized omega-amino acid transaminase activity assay, P. putida enzyme; type: biochemical, Pseudomonas putida
# Method: as §1, §2, §3
# Pseudomonas putida ATCC 39213 was cultured as described in Example 1 and an enzyme extract then was obtained as therein described. The specific activity of the omega-amino acid transaminase was 0.045 units/mg.
# as §4, §5, §6
# [5] = tested on: omega-amino acid transaminase; test: relative rates of conversion of different chiral amines by soluble enzymatic preparations; type: biochemical; conditions: for conversion to the nonchiral ketone by the transaminase: racemate subjected to the enzyme
# Method: as §1, §2, §3
# The following procedure exemplifies the relative rates of conversion, determined directly or calculated from kinetic data, of different chiral amines by soluble enzymatic preparations utilizing the assay described above but substituting the indicated chiral amine.
# β-alanine transaminase = conditions: relative activities, Nakano et al. 1977; cited from earlier work
# [6] = tested on: -aminobutyrate transaminase; conditions: relative activities, Nakano et al. 1977; cited from earlier work
# [7] = tested on: omega-amino acid transaminase; test: rate of immobilized enzyme reaction with added benzylacetone; type: biochemical, Bacillus megaterium; conditions: 80 mM R,S-1-phenyl-3-aminobutane, 60 mM glyoxylate, pH 6.5
# Method: Immobilization: A 47 mm diameter […] (FMC Corp.) support matrix (0.4 g) was loaded into a housing (Millipore Sweenex) fitted with inlet and outlet tubing, a peristaltic pump, and reservoir. The matrix was washed sequentially, at ambient temperatures and a rate of 3 ml/min., with (1) 200 ml of 50 mM of phosphate buffer (pH 7) containing 0.5 mM pyridoxal phosphate over a period of 20 min., (2) 11 ml of a 4.6 mg/ml solution of enzyme obtained in the manner of Example 1 for 120 min., (3) 150 ml of 0.3 M sodium chloride in 50 mM of phosphate buffer (pH 7) containing 0.5 mM pyridoxal phosphate for 30 minutes, and (4) 200 ml of 50 mM of phosphate buffer (pH 7) containing 0.5 mM pyridoxal phosphate over a period of 20 min.
# A solution of omega-amino acid transaminase was immobilized onto a matrix according to the methods in Example 16. Four independent 200 milliliter substrate solutions containing 80 mM of R,S-1-phenyl-3-aminobutane, 60 mM glyoxylate, 0.1 mM pyridoxal phospate, and 50 mM potassium phosphate (pH 6.5) were prepared. Benzylacetone in concentrations of 0.50 mM, 0.85 mM, 1.45 mM, and 2.55 mM, respectively, were added to the four substrate solutions and these were pumped through the immobilized enzyme matrix. The rate of the enzyme catalyzed reaction was measured in micromoles/minute.
# [8] = solvent-to-aqueous phase partition coefficient of the ketone; type: physicochemical; conditions: heptane as organic solvent
# Excerpt: The organic solvent will normally be one in which the ketone produced is soluble to a greater degree than in water. Solvents in which the ketone has a solvent-to-aqueous phase partition coefficient greater than one are suitable and those with coefficients greater than 8 are preferred. Examples of these are liquid hydrocarbons such as benzene or hexane, halogenated hydrocarbons such as chloroform, dichloromethane or, carbon tetrachloride, various fluorocarbons such as freon, long-chain alcohols such as octanol or decanol, esters such as ethyl acetate, or triglyceride oils, A solvent which typifies this is heptane which has a partition coefficient of ≈24. Supercritical fluids such as supercritical CO2 may also be used.
# [9] = stereoselectivity: 15 mM R-1-phenyl-3-aminobutane versus R,S-, with pyruvate
# [10] = general statement of the description
# [11] = inactivator 0.5 mM preincubated before addition of R,S-1-phenyl-3-aminobutane, None = 100
smiles,measurement,setting,value
NCCc1ccc(O)cc1 [tyramine],Specific Activity (units/mg) Acetate,Bacillus megaterium,0.24 units/mg
CC[C@@H](C)N [R-2-aminobutane],Specific Activity (units/mg) Acetate,Bacillus megaterium,0.13 units/mg
same,Specific Activity (units/mg) Succinate,Bacillus megaterium,0.06 units/mg
O=CC(=O)O [glyoxalate],Relative Rate of Conversion,[1]; amino acceptor 20 mM,50
"CC(N)CCc1ccccc1 (racemic) [R,S-1-phenyl-3-aminobutane]",Relative Rate of Conversion B. megaterium,[2]; [9],100
same,Relative Rate of Conversion P. aeruginosa,[3]; [9],100
same,Relative Rate of Conversion P. putida,[4]; [9],100
same,Specific Activity (units/mg) Acetate,Bacillus megaterium,0.33 units/mg
same,Specific Activity (units/mg) Gluconate,Bacillus megaterium; 40 mM gluconate as carbon source,0.26 units/mg
same,Specific Activity (units/mg) Glucose,Bacillus megaterium; 40 mM glucose as carbon source,0.62 units/mg
same,Specific Activity (units/mg) Succinate,Bacillus megaterium,0.28 units/mg
same,Relative Rate of Conversion R-enantiomer,"[5]; amine (R,S) 30 mM",5
same,Relative Rate of Conversion S-enantiomer,"[5]; amine (R,S) 30 mM",100
CC(N)c1cccc2ccccc12 (stereo not drawn) [1-(α-naphthyl)1-aminoethane],Relative Rate of Conversion R-enantiomer,"[5]; amine (R,S) 10 mM",0
same,Relative Rate of Conversion S-enantiomer,"[5]; amine (R,S) 10 mM",100
C[C@@H](N)c1ccccc1 [R-1-phenyl-1-aminoethane],Specific Activity (units/mg) Acetate,Bacillus megaterium,0.36 units/mg
same,Specific Activity (units/mg) Succinate,Bacillus megaterium,0.27 units/mg
same,conversion to the nonchiral ketone by the transaminase,[5]; [10],unchanged
CCC=O [propionaldehyde],Relative Rate of Conversion,[1]; amino acceptor 20 mM,100
CCCC(C)=O [2-pentanone],Relative Rate of Conversion,[1]; amino acceptor 25 mM,33
CCCCCCC(C)N (centres unmarked) [2-aminooctane],Relative Rate of Conversion R-enantiomer,"[5]; amine (R,S) 5 mM",0
same,Relative Rate of Conversion S-enantiomer,"[5]; amine (R,S) 5 mM",100
O=C1CCCCC1 [cyclohexanone],Relative Rate of Conversion,[1]; amino acceptor 25 mM,23
"CCC(C)N (racemic) [R,S-2-aminobutane]",Specific Activity (units/mg) Acetate,Bacillus megaterium,0.14 units/mg
same,Specific Activity (units/mg) Succinate,Bacillus megaterium,0.13 units/mg
NCCCC(=O)O [-aminobutyrate],activity of β-alanine transaminase on the substrate,β-alanine transaminase,43
same,activity of -aminobutyrate transaminase on the substrate,[6],100
CC=O [acetaldehyde],Relative Rate of Conversion,[1]; amino acceptor 20 mM,50
CCC(N)c1ccccc1 (centres unmarked) [1-phenyl-1-aminopropane],Relative Rate of Conversion R-enantiomer,"[5]; amine (R,S) 20 mM",11
same,Relative Rate of Conversion S-enantiomer,"[5]; amine (R,S) 20 mM",100
CC(N)c1ccc(Br)cc1 (centres unmarked) [1-(4-bromophenyl)-1-aminoethane],Relative Rate of Conversion R-enantiomer,"[5]; amine (R,S) 30 mM",0
same,Relative Rate of Conversion S-enantiomer,"[5]; amine (R,S) 30 mM",100
"NC1C=CC=C(C(=O)O)C1 (centres unmarked) [Gabaculine, reference compound]",Relative Rate of Conversion B. megaterium,[2]; [11],13
same,Relative Rate of Conversion P. putida,[4]; [11],0
"CC(N)c1ccccc1 (racemic) [R,S-1-phenyl-1-aminoethane]",Specific Activity (units/mg) Acetate,Bacillus megaterium,0.39 units/mg
same,Specific Activity (units/mg) Succinate,Bacillus megaterium,0.27 units/mg
same,Relative Rate of Conversion R-enantiomer,"[5]; amine (R,S) 10 mM",0
same,Relative Rate of Conversion S-enantiomer,"[5]; amine (R,S) 10 mM",100
C[C@@H](N)CCc1ccccc1 [R-1-phenyl-3-aminobutane],Relative Rate of Conversion B. megaterium,[2]; [9],15
same,Relative Rate of Conversion P. aeruginosa,[3]; [9],4
same,Relative Rate of Conversion P. putida,[4]; [9],3
same,Specific Activity (units/mg) Acetate,Bacillus megaterium,0.26 units/mg
same,Specific Activity (units/mg) Succinate,Bacillus megaterium,0.21 units/mg
same,conversion to 1-phenylbutan-3-one as a factor of that of the S-form,[5]; [10],≤ 0.05
CC(=O)CCc1ccccc1 [benzylacetone],ENZYME ACTIVITY,[7]; benzylacetone 0.50 mM,11.2 µM/min
same,ENZYME ACTIVITY,[7]; benzylacetone 0.85 mM,9.5 µM/min
same,ENZYME ACTIVITY,[7]; benzylacetone 1.45 mM,8.1 µM/min
same,ENZYME ACTIVITY,[7]; benzylacetone 2.55 mM,6.1 µM/min
"NO [Hydroxylamine, reference compound]",Relative Rate of Conversion B. megaterium,[2]; [11],10
same,Relative Rate of Conversion P. aeruginosa,[3]; [11],0
same,Relative Rate of Conversion P. putida,[4]; [11],3
NCCC(=O)O [β-alanine],activity of β-alanine transaminase on the substrate,β-alanine transaminase,100
same,activity of -aminobutyrate transaminase on the substrate,[6],3
CCC(C)=O [butan-2-one],Relative Rate of Conversion,[1]; amino acceptor 20 mM,20
C[C@@H](N)c1ccc(Br)cc1 [R-1-amino-1-(4-bromophenyl)ethane],conversion to the nonchiral ketone by the transaminase,[5]; [10],unchanged
CC(N)c1ccc([N+](=O)[O-])cc1 (centres unmarked) [1-(4-nitrophenyl)-1-aminoethane],Relative Rate of Conversion R-enantiomer,"[5]; amine (R,S) 5 mM",0
same,Relative Rate of Conversion S-enantiomer,"[5]; amine (R,S) 5 mM",100
NC(CO)c1ccccc1 (centres unmarked) [phenylglycinol],Relative Rate of Conversion R-enantiomer,"[5]; amine (R,S) 10 mM",100
same,Relative Rate of Conversion S-enantiomer,"[5]; amine (R,S) 10 mM",0
CCCCCCC [heptane],"partition coefficient (ketone, solvent-to-aqueous phase)",[8],≈ 24
CC(N)CCCc1cccnc1 (centres unmarked) [5-(3-pyridyl)-2-aminopentane],Relative Rate of Conversion R-enantiomer,"[5]; amine (R,S) 5 mM",0
same,Relative Rate of Conversion S-enantiomer,"[5]; amine (R,S) 5 mM",100
O=C1CCCC1 [cyclopentanone],Relative Rate of Conversion,[1]; amino acceptor 25 mM,12
CC(N)Cc1ccccc1 (centres unmarked) [3-phenyl-2-aminopropane],Relative Rate of Conversion R-enantiomer,"[5]; amine (R,S) 10 mM",100
same,Relative Rate of Conversion S-enantiomer,"[5]; amine (R,S) 10 mM",0
same,Relative Rate of Conversion R-enantiomer,"[5]; amine (R,S) 15 mM",7
same,Relative Rate of Conversion S-enantiomer,"[5]; amine (R,S) 15 mM",100
CCCC=O [butyraldehyde],Relative Rate of Conversion,[1]; amino acceptor 20 mM,90
O=Cc1ccccc1 [benzaldehyde],Relative Rate of Conversion,[1]; amino acceptor 25 mM,17
CC(=O)c1ccccc1 [acetophenone],relative rates,"[1]; as amino acceptor, concentration not given",≤ 10
CCCCCCC=O [heptaldehyde],Relative Rate of Conversion,[1]; amino acceptor 25 mM,80

# — patent publication US5169780A, “Enantiomeric enrichment and stereoselective synthesis of chiral amines” (Celgene Corporation, priority 1990, dated 1992)
